Laboratory results: patent US6414007B1, “Oxiranyl-triazoline thiones and their use as microbicides” (Bayer Aktiengesellschaft, priority 1997, dated 2002)

Columns and labels:
Podosphaera leucotricha = assay: Podosphaera test (apple)/protective; type: in vivo; conditions: protective, evaluation 10 days after inoculation
Protocol: Podosphaera test (apple)/protective Solvent: 47 parts by weight of acetone Emulsifier: 3 parts by weight of alkylaryl polyglycol ether To produce a suitable preparation of active compound, 1 part by weight of active compound is mixed with the stated amounts of solvent and emulsifier, and the concentrate is diluted with water to the desired concentration. To test for protective activity, young plants are sprayed with the preparation of active compound at the stated application rate. After the spray coating has dried on, the plants are inoculated with an aqueous spore suspension of the causative organism of apple mildew Podosphaera leucotricha. The plants are then placed in a greenhouse at approximately 23° C. and a relative atmospheric humidity of approximately 70%. Evaluation was carried out 10 days after the inoculation. 0% means an efficacy which corresponds to that of the control, whereas an efficacy of 100% means that no infections are observed.

[1] = tested on: Erysiphe graminis f.sp. hordei; assay: Erysiphe test (barley)/protective; type: in vivo; conditions: protective, application rate 125 g/ha, evaluation 7 days after inoculation
Protocol: (§1) Erysiphe test (barley)/protective Solvent: 25 parts by weight of N,N-dimethylacetamide Emulsifier: 0.6 parts by weight of alkylaryl polyglycol ether To produce a suitable preparation of active compound, 1 part by weight of active compound is mixed with the stated amounts of solvent and emulsifier, and the concentrate is diluted with water to the desired concentration. To test for protective activity, young plants are sprayed with the preparation of active compound at the stated application rate. After the spray coating has dried on, the plants are dusted with spores of Erysiphe graminis f.sp. hordei. The plants are placed in a greenhouse at a temperature of approximately 20° C. and a relative atmospheric humidity of approximately 80% to promote the development of mildew pustules. Evaluation is carried out 7 days after the inoculation. 0% means an efficacy which corresponds to that of the control, whereas an efficacy of 100% means that no infections are observed.

[2] = tested on: Erysiphe graminis f.sp. hordei; assay: Erysiphe test (barley)/curative; type: in vivo; conditions: curative (sprayed 48 hours after inoculation), application rate 250 g/ha, evaluation 7 days after inoculation
Protocol: as §1, with “(barley)/curative” for “(barley)/protective”, “curative” for “protective”, “young plants are dusted with spores of Erysiphe graminis f.sp. hordei. 48 hours after the inoculation, the” for “young”, “rate.” for “rate. After the spray coating has dried on, the plants are dusted with spores of Erysiphe graminis f.sp. hordei.”

[3] = tested on: Erysiphe graminis f.sp. tritici; assay: Erysiphe test (wheat)/protective; type: in vivo; conditions: protective, application rate 250 g/ha, evaluation 7 days after inoculation
Protocol: as §1, with “(wheat)/protective” for “(barley)/protective”, “tritici.” for “hordei.”

Leptosphaeria nodorum = Leptosphaeria nodorum test (wheat)/protective; type: in vivo; conditions: protective, application rate 250 g/ha, evaluation 10 days after inoculation
Protocol: Leptosphaeria nodorum test (wheat)/protective Solvent: 25 parts by weight of N,N-dimethylacetamide Emulsifier: 0.6 parts by weight of alkylaryl polyglycol ether To produce a suitable preparation of active compound, 1 part by weight of active compound is mixed with the stated amounts of solvent and emulsifier, and the concentrate is diluted with water to the desired concentration. To test for protective activity, young plants are sprayed with the preparation of active compound at the stated application rate. After the spray coating has dried on, the plants are dusted with a spore suspension of Leptosphaeria nodorum. The plants remain in an incubation cabin at 20° C. and 100% relative atmospheric humidity for 48 hours. The plants are placed in a greenhouse at a temperature of approximately 15° C. and a relative atmospheric humidity of 80%. Evaluation is carried out 10 days after the inoculation. 0% means an efficacy which corresponds to that of the control, whereas an efficacy of 100% means that no infections are observed.

Puccinia recondita [4] = assay: Puccinia test (wheat)/curative; type: in vivo; conditions: curative, application rate 125 g/ha, evaluation 10 days after inoculation
Protocol: Puccinia test (wheat)/curative Solvent: 25 parts by weight of N,N-dimethylacetamide Emulsifier: 0.6 parts by weight of alkylaryl polyglycol ether To produce a suitable preparation of active compound, 1 part by weight of active compound is mixed with the stated amounts of solvent and emulsifier, and the concentrate is diluted with water to the desired concentration. To test for curative activity, young plants are sprayed with a Conidia suspension of Puccinia recondita. The plants remain in an incubation cabin at 20° C. and 100% relative atmospheric humidity for 48 hours. The plants are then sprayed with the preparation of active compound at the stated application rate. The plants are placed in a greenhouse at a temperature of approximately 20° C. and a relative atmospheric humidity of approximately 80% to promote the development of rust pustules. Evaluation is carried out 10 days after the inoculation. 0% means an efficacy which corresponds to that of the control, whereas an efficacy of 100% means that no infections are observed.

Puccinia recondita [5] = assay: Puccinia test (wheat)/protective; type: in vivo; conditions: protective, application rate 125 g/ha, evaluation 10 days after inoculation
Protocol: Puccinia test (wheat)/protective Solvent: 25 parts by weight of N,N-dimethylacetamide Emulsifier: 0.6 parts by weight of alkylaryl polyglycol ether To produce a suitable preparation of active compound, 1 part by weight of active compound is mixed with the stated amounts of solvent and emulsifier, and the concentrate is diluted with water to the desired concentration. To test for protective activity, young plants are sprayed with the preparation of active compound at the stated application rate. After the spray coating has dried on, the plants are sprayed with a […] of Puccinia recondita. The plants remain in an incubation cabin at 20° C. and 100% relative atmospheric humidity for 48 hours. The plants are placed in a greenhouse at a temperature of approximately 20° C. and a relative atmospheric humidity of approximately 80% to promote the development of rust pustules. Evaluation is carried out 10 days after the inoculation. 0% means an efficacy which corresponds to that of the control, whereas an efficacy of 100% means that no infections are observed.

Coriolus versicolor = assay: Inhibition test on giant colonies of Basidiomycetes; type: cell-based; conditions: Trametes versicolor; 6 ppm of active compound, malt extract peptone agar, 26° C., evaluation after 3 or 7 days; read-out: Inhibition in per cent of radial growth of giant colonies
Protocol: Inhibition test on giant colonies of Basidiomycetes Solvent: Dimethylsulphoxide To produce a suitable preparation of active compound, 0.2 parts by weight of active compound are admixed to 99.8 parts by weight of the abovementioned solvent. An agar, prepared by using malt extract peptone, is mixed in a liquid state with the preparation of active compound at the particular desired application rate. After solidification, the resultant nutrient medium is incubated at 26° C. with mycelium pieces punched out of colonies of Coriolus versicolor. Evaluation is carried out after 3 or 7 days' storage at 26° C. by measuring the growth of the mycelium and scoring the resulting inhibition in percent in comparison to the untreated control. 0% means an inhibition of growth which corresponds to that of the untreated control, while an inhibition of growth of 100% means that no growth of mycelium is observed.

Row | Compound | Efficacy in % (Podosphaera leucotricha; application rate 1 g/ha) [%] | Efficacy in % (Podosphaera leucotricha; application rate 10 g/ha) [%] | Efficacy in % [1] [%] | Efficacy in % [2] [%] | Efficacy in % [3] [%] | Efficacy in % (Leptosphaeria nodorum) [%] | Efficacy in % (Puccinia recondita [4]) [%] | Efficacy in % (Puccinia recondita [5]) [%] | inhibition at 6 ppm (Coriolus versicolor) [%] | melting point [°C]
1 | Fc1ccc(C2(Cn3nc[nH]c3=S)OC2c2ccccc2Cl)cc1 (stereo not drawn) [A, 3-(2-chloro-phenyl)-2-(4-fluoro-phenyl)-2-[(4,5-dihydro-5-thiono-1,2,4-triazol-1-yl)-methyl]-oxirane, reference compound] | 57 | 92 | – | – | – | – | – | – | – | –
2 | CCOCCCNC(=O)n1cnn(CC2(c3ccc(F)cc3)OC2c2ccccc2Cl)c1=S (stereo not drawn) [Example 1] | 65 | 100 | 100 | 100 | 100 | 100 | 100 | 100 | 100 | –
3 | COCCNC(=O)n1cnn(CC2(c3ccc(F)cc3)OC2c2ccccc2Cl)c1=S (stereo not drawn) [Example 2] | 88 | 100 | 100 | – | – | – | 100 | 100 | – | 105 to 107
4 | CC(C)NC(=O)n1cnn(CC2(c3ccc(F)cc3)OC2c2ccccc2Cl)c1=S (stereo not drawn) [Example 3] | 80 | 100 | 100 | – | 100 | – | 100 | – | 100 | 104 to 106
